Read-outs that look alike come from different tables or passages of the source.

The values that follow come from PMC7329795 (Pharmacological Reports, 2020).

Data set [1] addresses T1, CYP1A2 (Homo sapiens, UniProt P05177).
T1 sequence (P05177 1-516): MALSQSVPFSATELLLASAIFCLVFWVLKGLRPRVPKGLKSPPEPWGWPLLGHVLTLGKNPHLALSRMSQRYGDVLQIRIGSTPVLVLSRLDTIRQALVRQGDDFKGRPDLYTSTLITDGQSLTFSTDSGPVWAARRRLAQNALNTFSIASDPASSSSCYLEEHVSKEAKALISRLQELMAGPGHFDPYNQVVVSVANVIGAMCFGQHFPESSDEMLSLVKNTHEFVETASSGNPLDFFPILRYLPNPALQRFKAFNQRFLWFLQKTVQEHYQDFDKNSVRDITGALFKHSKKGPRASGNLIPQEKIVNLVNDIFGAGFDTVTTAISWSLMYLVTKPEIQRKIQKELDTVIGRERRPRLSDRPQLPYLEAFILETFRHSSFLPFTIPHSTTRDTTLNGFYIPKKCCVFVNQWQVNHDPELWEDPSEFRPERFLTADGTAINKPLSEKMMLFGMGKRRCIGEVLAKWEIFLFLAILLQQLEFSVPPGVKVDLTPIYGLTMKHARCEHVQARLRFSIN
To be noted: liver microsomes; Lineweaver–Burk's plots.

The target of data set [2] is T2, CYP2D6 (Homo sapiens, UniProt P10635). Details: method as in PMID 26033329. To be noted: psychiatric patients; cited from earlier work.
For data set [3] the following is noted: cited from earlier work.
Data set [4] has as its target human cDNA-expressed CYP2C9 (Homo sapiens, UniProt P11712). As to the kind of experiment: CYP2C9 activity, diclofenac 4′-hydroxylation, Supersomes CYP2C9. The protocol: (§1) The final incubation volume was 0.5 ml. After a 30-min incubation, the reaction was stopped by adding 100 µl of acetonitrile. […] The final concentration of CYP2C9 was 50 pmol/ml. Concentrations of diclofenac and its metabolite 4′-hydroxydiclofenac, formed in liver microsomes or Supersomes 2C9, were assessed by the HPLC method with UV detection, as described previously.

For data set [5] the following is noted: cited from earlier work. The source holds these as a separate data set.
The target in data set [6] is T2, CYP2D6.
For data set [7], the target named is T2, CYP2D6. To be noted: liver microsomes; Lineweaver–Burk's plots.
Data set [8] addresses T1, CYP1A2.
For data set [9], the target named is T3, human cDNA-expressed CYP2D6 (Homo sapiens, UniProt P10635). As to conditions: recombinant enzyme.
Data set [10] has as its target T4, CYP2C9 (Homo sapiens, UniProt P11712). As to the kind of experiment: CYP2C9 activity, diclofenac 4′-hydroxylation, pooled human liver microsomes. The method, then:
as §1

In data set [11] the target is T5, CYP2C19 (Homo sapiens, UniProt P33261).
Data set [12] concerns the target T5, CYP2C19. As to conditions: liver microsomes; asenapine 0.01-10 μM.
Data set [13] has as its target human cDNA-expressed CYP3A4 (Homo sapiens, UniProt P08684).
The conditions of data set [14]: cited from earlier work. This is another data set of the same source.
Data set [15] addresses T3, human cDNA-expressed CYP2D6.
Data set [16] addresses T6, CYP3A4 (Homo sapiens, UniProt P08684).
Data set [17] has as its target T4, CYP2C9. As to the kind of experiment: CYP2C9 activity, diclofenac 4′-hydroxylation, Supersomes CYP2C9. As to conditions: human, pH 7.4, probe diclofenac (4′-hydroxylation). The protocol: as §1
For data set [18] the following is noted: clinical studies; cited from earlier work.
Data set [19] deals with T6, CYP3A4. As to the kind of experiment: in vitro. To be noted: pH 7.4.
In data set [20] the target is T6, CYP3A4. The data set is described as follows: in vitro. To be noted: pH 7.4. This is another data set of the same source.
Substrate in data set [21]: CN1CCN(CCCN2c3ccccc3Sc3ccccc32)CC1
Substrate in data set [22]: Cn1c(=O)c2c(ncn2C)n(C)c1=O

T4 sequence (P11712 whole entry): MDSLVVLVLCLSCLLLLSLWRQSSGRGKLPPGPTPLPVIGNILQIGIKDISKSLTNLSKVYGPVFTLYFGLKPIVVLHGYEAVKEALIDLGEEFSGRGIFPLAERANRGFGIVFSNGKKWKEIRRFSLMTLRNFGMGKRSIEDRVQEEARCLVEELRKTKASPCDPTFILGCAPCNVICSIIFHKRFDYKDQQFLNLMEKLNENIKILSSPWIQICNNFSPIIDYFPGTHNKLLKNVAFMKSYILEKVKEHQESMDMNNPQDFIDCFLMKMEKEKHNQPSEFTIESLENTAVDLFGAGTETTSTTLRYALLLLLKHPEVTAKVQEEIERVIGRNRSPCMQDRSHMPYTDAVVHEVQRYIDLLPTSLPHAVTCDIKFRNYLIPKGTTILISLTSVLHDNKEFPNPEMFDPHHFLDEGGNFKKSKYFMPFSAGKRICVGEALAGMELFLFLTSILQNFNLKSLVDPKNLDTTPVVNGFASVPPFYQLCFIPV
T6 sequence (P08684 whole entry): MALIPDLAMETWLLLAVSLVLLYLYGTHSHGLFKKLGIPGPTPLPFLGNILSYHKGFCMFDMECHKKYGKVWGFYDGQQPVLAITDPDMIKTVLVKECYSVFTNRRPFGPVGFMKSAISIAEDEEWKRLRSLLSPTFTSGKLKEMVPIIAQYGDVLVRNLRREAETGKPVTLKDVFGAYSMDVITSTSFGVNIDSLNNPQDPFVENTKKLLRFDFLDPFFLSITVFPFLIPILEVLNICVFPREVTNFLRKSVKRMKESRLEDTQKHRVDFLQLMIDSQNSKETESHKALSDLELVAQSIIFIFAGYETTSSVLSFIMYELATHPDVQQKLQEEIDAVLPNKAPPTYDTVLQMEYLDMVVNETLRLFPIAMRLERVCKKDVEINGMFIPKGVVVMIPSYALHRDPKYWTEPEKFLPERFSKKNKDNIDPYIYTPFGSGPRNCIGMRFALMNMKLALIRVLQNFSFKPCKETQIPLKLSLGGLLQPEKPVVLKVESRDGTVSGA
T2 sequence (P10635 whole entry): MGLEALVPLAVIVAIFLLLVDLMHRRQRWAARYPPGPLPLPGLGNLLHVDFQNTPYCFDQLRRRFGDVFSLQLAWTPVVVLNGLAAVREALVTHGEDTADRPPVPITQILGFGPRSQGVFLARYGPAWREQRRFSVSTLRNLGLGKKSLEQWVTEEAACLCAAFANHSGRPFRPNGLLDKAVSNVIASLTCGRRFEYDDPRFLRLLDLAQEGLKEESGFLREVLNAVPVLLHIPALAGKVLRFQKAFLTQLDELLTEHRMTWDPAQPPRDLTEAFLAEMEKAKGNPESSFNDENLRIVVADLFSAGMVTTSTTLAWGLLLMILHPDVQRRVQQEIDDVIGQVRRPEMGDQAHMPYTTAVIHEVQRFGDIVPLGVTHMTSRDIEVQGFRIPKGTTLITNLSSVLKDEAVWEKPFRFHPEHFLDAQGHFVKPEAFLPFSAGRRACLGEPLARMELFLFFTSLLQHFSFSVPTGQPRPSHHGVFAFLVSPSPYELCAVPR
T3 sequence (P10635 whole entry): as above
Sequence of human cDNA-expressed CYP2C9 (P11712 whole entry): as the sequence (P11712 whole entry) above
Sequence of human cDNA-expressed CYP3A4 (P08684 whole entry): as the sequence (P08684 whole entry) above

`CN1CC2c3ccccc3Oc3ccc(Cl)cc3C2C1` (stereo not drawn) [Asenapine]: in data set [1], the “type of inhibition (CYP1A2)” value was “mixed”. Moreover, the “effect on the concentration of paroxetine (a CYP2D6 substrate) in the blood plasma” value in data set [2] was “doubled”. Besides, the “estimated terminal half-life (t1/2)” value in data set [3] (adults) is on record as “approximately 24 h”. In addition, the therapeutic plasma concentrations entry in data set [3] was “up to 0.1 μM”. For the same molecule, the concentration for half-maximal inhibition (IC50) in data set [4] is more than 1000 µM; in data set [6] it was 0.391 µM; in data set [8], 0.697 µM; in data set [10] it was more than 1000 µM; in data set [11], more than 1000 µM; in [15] it was 0.398 µM. In [5], the “bound to plasma proteins” value is recorded as 95%. Moreover, the figures for the inhibition constant (Ki) in [6], in data set [8] and in data set [15] were 1.75 µM, 3.2 µM and 1.89 µM, respectively. Further, the “type of inhibition (CYP2D6)” value in data set [7] and in data set [9] was “competitive” in each case. In addition, the “effect on the activity of CYP2C9” value in [10] (liver microsomes, asenapine 0.01-10 μM) is given as “did not affect”. The “effect on the activity of CYP2C19” value in [12] is given as “did not affect”. In addition, the “type of inhibition (CYP3A4)” value in [13] (recombinant enzyme) was “non-competitive”; in [16] (liver microsomes, Lineweaver–Burk's plots), “non-competitive”. For the same molecule, the pKa is on record as 9.64 in data set [14] (amine) and 8.6 in data set [14] (protonated base). The “log P” value in [14] (cationic form) is reported as 1.4; in data set [14] (neutral form), 4.9.
Turning to `O=C(O)Cc1ccccc1Nc1c(Cl)cccc1Cl` [diclofenac], the “Vmax, diclofenac 4′-hydroxylation” value in [4] (Supersomes CYP2C9) worked out at 213.6 pmol/pmol CYP/min. In addition, the Km at 30 min in [17] came out at 132 µM; in data set [10] (human, pH 7.4) it was 137 µM.
As to `O=C(CCCN1CCC(O)(c2ccc(Cl)cc2)CC1)c1ccc(F)cc1` [haloperidol], in data set [18], the “concentration in the liver relative to that in plasma” value was 900 fold.
Consider `C[C@]12CC[C@H]3[C@@H](CCC4=CC(=O)CC[C@@]43C)[C@@H]1CC[C@@H]2O` [testosterone], for which the Km at 20 min in data set [19] was 283 µM. Further, the “Vmax, testosterone 6β-hydroxylation” value in data set [13] (Supersomes CYP3A4) came to 42.9 pmol/pmol CYP/min; in data set [16] (human liver microsomes) it was 72.9 pmol/mg protein/min. The Michaelis constant (Km) at 30 min in [20] worked out at 428 µM.

B1: CYP2C19 (Homo sapiens) (protein)
chain: MDPFVVLVLCLSCLLLLSIWRQSSGRGKLPPGPTPLPVIGNILQIDIKDVSKSLTNLSKIYGPVFTLYFGLERMVVLHGYEVVKEALIDLGEEFSGRGHFPLAERANRGFGIVFSNGKRWKEIRRFSLMTLRNFGMGKRSIEDRVQEEARCLVEELRKTKASPCDPTFILGCAPCNVICSIIFQKRFDYKDQQFLNLMEKLNENIRIVSTPWIQICNNFPTIIDYFPGTHNKLLKNLAFMESDILEKVKEHQESMDINNPRDFIDCFLIKMEKEKQNQQSEFTIENLVITAADLLGAGTETTSTTLRYALLLLLKHPEVTAKVQEEIERVIGRNRSPCMQDRGHMPYTDAVVHEVQRYIDLIPTSLPHAVTCDVKFRNYLIPKGTTILTSLTSVLHDNKEFPNPEMFDPRHFLDEGGNFKKSNYFMPFSAGKRICVGEGLARMELFLFLTFILQNFNLKSLIDPKDLDTTPVVNGFASVPPFYQLCFIPV
In the case of B1, in data set [21], the Michaelis constant (Km) was determined as 199.9 µM and the Vmax is listed as 1.58 nmol/mg protein/min.

B2: CYP1A2 (Homo sapiens) (protein)
chain: MALSQSVPFSATELLLASAIFCLVFWVLKGLRPRVPKGLKSPPEPWGWPLLGHVLTLGKNPHLALSRMSQRYGDVLQIRIGSTPVLVLSRLDTIRQALVRQGDDFKGRPDLYTSTLITDGQSLTFSTDSGPVWAARRRLAQNALNTFSIASDPASSSSCYLEEHVSKEAKALISRLQELMAGPGHFDPYNQVVVSVANVIGAMCFGQHFPESSDEMLSLVKNTHEFVETASSGNPLDFFPILRYLPNPALQRFKAFNQRFLWFLQKTVQEHYQDFDKNSVRDITGALFKHSKKGPRASGNLIPQEKIVNLVNDIFGAGFDTVTTAISWSLMYLVTKPEIQRKIQKELDTVIGRERRPRLSDRPQLPYLEAFILETFRHSSFLPFTIPHSTTRDTTLNGFYIPKKCCVFVNQWQVNHDPELWEDPSEFRPERFLTADGTAINKPLSEKMMLFGMGKRRCIGEVLAKWEIFLFLAILLQQLEFSVPPGVKVDLTPIYGLTMKHARCEHVQARLRFSIN
For the molecule B2, in data set [22], the Km stood at 709 µM and the Vmax worked out at 9.67 pmol/mg protein/min.
